Measured values from PMC11053631 (Pharmaceuticals, 2024).
Converted amounts (≈) assume the structure as drawn. Like-named read-outs stand apart in the source and are kept apart here.

Experiments:
[1] = rats, intravenous and oral administration; cited from earlier work
[2] = Wettability test by film flotation; assay type: physicochemical
Method: To confirm the hypothesis given in the section discussing […] surface analysis, wettability tests using film flotation methods were conducted in SGF with/without surfactants. […] The wettability test was performed in pure SGF and SGF with 0.1% sodium dodecyl sulfonate (SDS) or tween 80 using film flotation methods.

[3] = Oral pharmacokinetic study in rats; assay type: in vivo; settings: Sprague Dawley, rat, fasted male rats, oral 200 mg/kg in soybean oil, plasma treated with β-glucuronidase/sulfatase
Method: The in vivo pharmacokinetic investigations of the CUR-L-CN co-crystal and the marketed CUR crystal were carried out in fasted male rats. In vivo, CUR is easily conjugated, and it can be conjugated with glucuronic acid and sulfate to form monoglucuronides, monosulfates, and mixed glucuronide/sulfates.
After administration, approximately 0.4 mL of blood was collected from the orbit of the rats into heparinized tubes at 20 min, 40 min, 1 h, 1.5 h, 2.5 h, 4 h, 6 h, and 8 h. Plasma samples (100 μL) were precisely aspirated and vortexed with 50 μL of β-glucuronidase and sulfatase buffer at 37 °C for 60 min. Plasma samples were protein precipitated by adding 0.45 mL of methanol (0.2% acetic acid). After 10 min of shaking, the samples were centrifuged at 14,000 rpm for 3 min. Subsequently, the supernatants were analyzed via HPLC/MS. All experimental procedures were approved by the Animal Ethics Committee.
HPLC methods and conditions were the same as 4.13. A 10 µL sample was injected each time, and the flow rate of the mobile phase was set as 0.6 mL/min.
The AUC0–t was calculated from plasma concentrations observed from 0 to 8 h using a linear trapezoidal approach.

[4] = Dynamic vapor sorption (DVS) hygroscopicity; assay type: physicochemical; settings: 25 °C
Method: The DVS profiles of different solid forms were tested on a SMS Intrinsic instrument, UK. To make sure each sample particle size was uniform, all samples were screened at 100 mesh (ΦA = 0.148 mm). Samples of 10–20 mg were used in the experiments. The DVS data were collected in an RH range of 0–95%. If the sample mass changes by less than 0.02% in 60 min, the next RH is conducted in a 5% step.

[5] = Powder dissolution in SGF and SIF; assay type: physicochemical; settings: for solubility at 180 min: thermodynamic from solid, 50 rpm, read-out: maximum solubility
Method: CUR-L-CN dissolves quickly and reaches its maximum concentration in 20 min. […] To understand this phenomenon, the residual powders after dissolution experiments were filtered and dried for PXRD analysis.
A mini bath dissolution device was used in the experiments, and a Julabo-5 heater was equipped for heating. The experiments were conducted at 37 °C with a rotational speed of 50 rpm. […] The dissolution rate experiments were measured in SGF and SIF containing 0.5% tween 80. SGF was prepared by diluting 16.4 mL of 10% HCl solution to 1000 mL with pure water. To prepare SIF, 6.8 g of KH2PO4 was dissolved in 500 mL of water; then, the pH was adjusted to 6.8 with NaOH solution with a concentration of 0.1 mol/L. At specified time points, i.e., 5 min, 10 min, 15 min, 20 min, 25 min, 30 min, 40 min, 50 min, 60 min, 90 min, 120 min, and 180 min, 0.5 mL of solution was withdrawn with a syringe. The collected solution was filtered through a 0.45 µm nylon filter and then subjected to HPLC determination. The dissolution studies of each solid form were conducted in triplicate (n = 3). After dissolution experiments, the residual samples were filtered and dried under vacuum for PXRD analysis.
The equipment has a diode array detector. An Agilent Zorbax Eclipse Plus C18 column was used in the experiments; it has a diameter of 4.6 mm, a length of 150 mm, and a filling aperture of 5 µm. The mobile phase contained 52% glacial acetic acid (4%) aqueous solution and 48% acetonitrile. The column temperature was set as 35 °C, and the UV-vis wavelength was set to 430 nm. A 10 µL sample was injected each time and the flow rate of the mobile phase was aet as 1 mL/min.

[6] = parameters: method as in U.S. Expert Review Board; settings: adults; ref U.S. Expert Review Board; cited from earlier work

| wettability (powder sinking) ([2]; SGF containing 0.1% SDS, after 10 min) | wettability (powder sinking) ([2]; SGF without surfactant) | Cmax [3] [ng/mL] | Tmax [3] [h] | AUC(0-t) ([3]; 0 to 8 h, read-out: AUC0–8) [ng·h/mL] | mass change ([4]; during 0%-95% RH) | time to reach maximum concentration in dissolution ([5]; powder dissolution, 37 °C) | solubility at 180 min ([5]; simulated gastric fluid (SGF) with 0.5% tween 80, aqueous with cosolvent or surfactant or cyclodextrin, SGF containing 0.5% tween 80, 37 °C) [µg/mL] | solubility at 180 min ([5]; simulated intestinal fluid (SIF) with 0.5% tween 80, aqueous with cosolvent or surfactant or cyclodextrin, SIF pH 6.8 containing 0.5% tween 80, 37 °C) [µg/mL] | Compound | oral bioavailability [1] | water uptake ([4]; at 40% RH) [%] | water uptake / water content ([4]; at 95% RH) [%] | water that cannot be removed ([4]; when RH decreases to 0%) [%] | dose rated as safe as nutritional supplement [6] [mg/kg/day] |
| --- | --- | --- | --- | --- | --- | --- | --- | --- | --- | --- | --- | --- | --- | --- |
| only a small quantity of CUR had sunk | could not sink into the fluid | 67.9 | 1.5 | 110 | nearly no mass change | continues to increase over 180 min | 48.2 (≈ 131 µM) | 24.5 (≈ 66.5 µM) | COc1cc(/C=C/C(=O)CC(=O)/C=C/c2ccc(O)c(OC)c2)ccc1O [CUR, Curcumin] | about 1% | – | – | – | – |
| – | – | – | – | – | – | – | – | – | C[N+](C)(C)C[C@H](O)CC(=O)[O-] [L-CN, L-carnitine] | – | 39.9 | 174.2 | 23.6 | 20 |
